Results published in patent US20070249673A1, “Method for administering tolperisone” (priority 2006, published 2007).

Test: Pharmacokinetic profile of tolperisone after single and multi-dosing (150 mg regimen over 7 days) in healthy subjects under fasted and fed conditions
Details: for AUC(0-t) / AUC(inf) / Cmax / t½ / λz / AUC(0-6): mean ± SD; for Tmax: median
[1] = Day 1 - 0800 Dose, Fasted, Females
[2] = Day 1 - 0800 Dose, Fasted, Males
[3] = Day 1 - 0800 Dose, Fasted, both sexes
[4] = Day 1 - 0800 Dose, Fed, Females
[5] = Day 1 - 0800 Dose, Fed, both sexes
[6] = Day 1, fed vs fasted, both sexes
[7] = Day 2 - 2200 Dose, Fasted, Females
[8] = Day 2 - 2200 Dose, Fasted, Males
[9] = Day 2 - 2200 Dose, Fasted, both sexes
[10] = Day 2 - 2200 Dose, Fed, Females
[11] = Day 2 - 2200 Dose, Fed, both sexes
[12] = Day 7 - 0800 Dose, Fasted, Females
[13] = Day 7 - 0800 Dose, Fasted, Males
[14] = Day 7 - 0800 Dose, Fasted, both sexes
[15] = Day 7 - 0800 Dose, Fed, Females
[16] = Day 7 - 0800 Dose, Fed, both sexes
[17] = Day 7 - 2200 Dose, Fasted, Females
[18] = Day 7 - 2200 Dose, Fasted, Males
[19] = Day 7 - 2200 Dose, Fasted, both sexes
[20] = Day 7 - 2200 Dose, Fed, Females
[21] = Day 7 - 2200 Dose, Fed, both sexes

Protocol: Dosing Regimen: Subjects in each cohort received tolperisone according to the following regimen.
Blood samples for the measurement of the plasma concentrations of tolperisone and metabolites M1 (4-hydroxymethyltolperisone) and M4 (4-carboxy-tolperisone) were collected at the times shown in Table 8.
Bioanalytical: Plasma concentrations of tolperisone and metabolites M1 and M4 were measured using a validated LC/MS/MS assay by Pharm-analyt Laboratory, Baden Austria. The limits of quantitation (LOQ) for tolperisone, Mi, and M4 in plasma were 0.2 ng/ML, and 0.01 μg/mL, respectively.
Pharmacokinetic Analyses: Pharmacokinetic parameters for tolperisone, M1, and M4 were calculated using non-compartmental analysis. Only plasma concentrations greater than or equal to the LOQ for the respective assay were used in the pharmacokinetic analyses. Actual blood sampling times were used in all pharmacokinetic analyses. […] All pharmacokinetic calculations were done using SAS® for Windows® Version 9.1.3.
The maximum plasma concentration (Cmax) and time to Cmax (Tmax) were taken directly from the data. The elimination rate constant, λz, was calculated as the negative of the slope of the terminal log-linear segment of the plasma concentration-time curve. The range of data to be used for each subject and treatment was determined by visual inspection of a semi-logarithmic plot of concentration versus time. Elimination half-life (t½) was calculated according to the following equation: [formula] Area under the curve to the final sample with a concentration greater than or equal to the LOQ [(AUC(0-t)] was calculated using the linear trapezoidal method and extrapolated to infinity [AUC(inf)] using: [formula] where Ctf is the final concentration≧LOQ.
The maximum plasma concentration (Cmax) and time to Cmax (Tmax) were taken directly from the data.
The maximum plasma concentration (Cmax) and time to Cmax (Tmax) were taken directly from the data. The elimination rate constant, λz, and half-life, t½, were calculated as described for the 0800 dose on Day 1 (above). Areas under the curve to the final sample with a concentration greater than or equal to the LOQ [(AUC(O-t)] and over the 6-hour dosing interval [AUC(0-6)] were calculated using the linear trapezoidal method.

AUC(0-t) [1]: 2.79 ± 0.37 (3) h · μg/mL
AUC(inf) [1]: 2.86 ± 0.40 (3) h · μg/mL
Cmax [1]: 1.31 ± 0.05 (3) μg/mL
t½ [1]: 0.99 ± 0.04 (3) h
λz [1]: 0.6981 ± 0.0253 (3) h^−1
Tmax [1]: 1.00 (3) h
AUC(0-t) [2]: 2.26 ± 0.42 (7) h · μg/mL
AUC(inf) [2]: 2.34 ± 0.44 (7) h · μg/mL
Cmax [2]: 1.31 ± 0.44 (7) μg/mL
t½ [2]: 1.10 ± 0.08 (7) h
λz [2]: 0.6321 ± 0.0488 (7) h^−1
Tmax [2]: 0.75 (7) h
AUC(0-t) [3]: 2.42 ± 0.46 (10) h · μg/mL
AUC(inf) [3]: 2.49 ± 0.48 (10) h · μg/mL
Cmax [3]: 1.31 ± 0.36 (10) μg/mL
t½ [3]: 1.07 ± 0.088 (10) h
λz [3]: 0.6519 ± 0.0524 (10) h^−1
Tmax [3]: 0.88 (10) h
AUC(0-t) [4]: 2.74 ± 0.74 (4) h · μg/mL
AUC(inf) [4]: 2.94 ± 0.84 (4) h · μg/mL
Cmax [4]: 1.02 ± 0.18 (4) μg/mL
t½ [4]: 1.16 ± 0.21 (4) h
λz [4]: 0.6189 ± 0.1389 (4) h^−1
Tmax [4]: 2.00 (4) h
AUC(0-t) (Day 1 - 0800 Dose, Fed, Males): 2.32 ± 0.70 (6) h · μg/mL
AUC(inf) (Day 1 - 0800 Dose, Fed, Males): 2.43 ± 0.76 (6) h · μg/mL
Cmax (Day 1 - 0800 Dose, Fed, Males): 1.27 ± 0.45 (6) μg/mL
t½ (Day 1 - 0800 Dose, Fed, Males): 1.17 ± 0.19 (6) h
λz (Day 1 - 0800 Dose, Fed, Males): 0.6047 ± 0.0938 (6) h^−1
Tmax (Day 1 - 0800 Dose, Fed, Males): 0.88 (6) h
AUC(0-t) [5]: 2.49 ± 0.70 (10) h · μg/mL
AUC(inf) [5]: 2.64 ± 0.79 (10) h · μg/mL
Cmax [5]: 1.17 ± 0.38 (10) μg/mL
t½ [5]: 1.16 ± 0.19 (10) h
λz [5]: 0.6104 ± 0.1067 (10) h^−1
Tmax [5]: 1.50 (10) h
decrease in the mean value for Cmax on administration with food [6]: 11%
increase in the mean value for AUC(inf) on administration with food [6]: 6%
Cmax [7]: 0.96 ± 0.48 (3) μg/mL
Tmax [7]: 1.00 (3) h
Cmax [8]: 0.53 ± 0.32 (7) μg/mL
Tmax [8]: 1.50 (7) h
Cmax [9]: 0.66 ± 0.40 (10) μg/mL
Tmax [9]: 1.25 (10) h
Cmax [10]: 0.82 ± 0.41 (4) μg/mL
Tmax [10]: 1.25 (4) h
Cmax (Day 2 - 2200 Dose, Fed, Males): 0.75 ± 0.42 (6) μg/mL
Tmax (Day 2 - 2200 Dose, Fed, Males): 1.00 (6) h
Cmax [11]: 0.78 ± 0.40 (10) μg/mL
Tmax [11]: 1.00 (10) h
mean AUC(0-6) under fed conditions lower than fasted (Day 7, 0800 dose, both sexes): 3%
mean Cmax under fed conditions lower than fasted (Day 7, 0800 dose, both sexes): 28%
AUC(0-6) [12]: 2.86 ± 0.42 (3) h · μg/mL
Cmax [12]: 1.57 ± 0.25 (3) μg/mL
t½ [12]: 1.12 ± 0.08 (3) h
λz [12]: 0.6226 ± 0.0416 (3) h^−1
Tmax [12]: 0.75 (3) h
AUC(0-6) [13]: 2.06 ± 0.39 (7) h · μg/mL
Cmax [13]: 1.04 ± 0.32 (7) μg/mL
t½ [13]: 1.20 ± 0.07 (7) h
λz [13]: 0.5809 ± 0.0358 (7) h^−1
Tmax [13]: 0.75 (7) h
AUC(0-6) [14]: 2.30 ± 0.54 (10) h · μg/mL
Cmax [14]: 1.19 ± 0.38 (10) μg/mL
t½ [14]: 1.17 ± 0.081 (10) h
λz [14]: 0.5934 ± 0.0406 (10) h^−1
Tmax [14]: 0.75 (10) h
AUC(0-6) [15]: 2.31 ± 0.39 (4) h · μg/mL
Cmax [15]: 0.95 ± 0.45 (4) μg/mL
t½ [15]: 1.10 ± 0.20 (3) h
λz [15]: 0.6452 ± 0.1199 (3) h^−1
Tmax [15]: 2.00 (4) h
AUC(0-6) (Day 7 - 0800 Dose, Fed, Males): 2.17 ± 0.57 (6) h · μg/mL
Cmax (Day 7 - 0800 Dose, Fed, Males): 0.80 ± 0.24 (6) μg/mL
t½ (Day 7 - 0800 Dose, Fed, Males): 1.21 ± 0.30 (6) h
λz (Day 7 - 0800 Dose, Fed, Males): 0.5978 ± 0.1116 (6) h^−1
Tmax (Day 7 - 0800 Dose, Fed, Males): 1.75 (6) h
AUC(0-6) [16]: 2.23 ± 0.49 (10) h · μg/mL
Cmax [16]: 0.86 ± 0.32 (10) μg/mL
t½ [16]: 1.17 ± 0.26 (09) h
λz [16]: 0.6136 ± 0.1092 (09) h^−1
Tmax [16]: 2.00 (10) h
Cmax [17]: 1.40 ± 0.21 (3) μg/mL
Tmax [17]: 1.50 (3) h
Cmax [18]: 0.844 ± 0.243 (7) μg/mL
Tmax [18]: 1.03 (7) h
Cmax [19]: 1.01 ± 0.35 (10) μg/mL
Tmax [19]: 1.27 (10) h
Cmax [20]: 0.99 ± 0.25 (4) μg/mL
Tmax [20]: 1.25 (4) h
Cmax (Day 7 - 2200 Dose, Fed, Males): 0.94 ± 0.25 (6) μg/mL
Tmax (Day 7 - 2200 Dose, Fed, Males): 1.04 (6) h
Cmax [21]: 0.96 ± 0.24 (10) μg/mL
Tmax [21]: 1.04 (10) h
accumulation (increase in Cmax over the seven days of dosing) (seven days of dosing, up to 150 mg three times daily): little or no accumulation
mean elimination half-life (summary, not dependent on sex, food or duration of dosing): ~1.1 h
SMILES: CC(CN1CCCCC1)C(=O)c1ccc(C(=O)O)cc1 (racemic) [Metabolite M4, 4-carboxy-tolperisone]
